Test results published in patent US20150335549A1, “Oral Care Composition Containing Ionic Liquids” (COLGATE-PALMOLIVE COMPANY, priority 2012, published 2015).

Assays:
A. viscosus = assay: Growth inhibition of A. viscosus over 24 hours (bacterial optical density); type: cell-based; settings: for Bacterial optical density, 4 h / Bacterial optical density, 22 h / Bacterial optical density, 24 h / Bacterial optical density, 0 h: 500 μl test sample added to 9.5 ml A. viscosus in TSB, 3 replicates; for Bacterial optical density, 0 h: initial O.D.
Source text: Bacterial optical density was captured every at 0, 4, 22 and 24 hrs.

3-day biofilm = assay: Design-of-experiments statistical analysis / D-Optimal Design prediction of 3-day biofilm removal; settings: glycerin 10%, propylene glycol 5%; for Percent biofilm removal: sorbitol 10%; for Percent biofilm removal if sorbitol at 20%: sorbitol 20%
Method: A statistical design-of-experiments (DOE) approach was used to develop prototype mouth rinse formulations for biofilm removal. An 8 factor design was used. A mouth rinse was used a base formulation (see Table 3). […] The influence of the anti-bacterial agent cetyl pyridinium chloride (CPC) on biofilm removal was also evaluated. The sweetener sucralose and the flavor were at kept constant concentration in all the formulations.

[1] = tested on: biofilm of artificial mouth consortium (A. naeslundii, S. oralis, V. parvula, L. casei, F. nucleatum) of bacteria with S. mutans; assay: In vitro biofilm removal: 3-day old multispecies oral biofilm on saliva-coated 24 well plate, optical density at 610 nm, % reduction from water control; settings: for % removal in High humectant mouthwash / % removal in Low humectant mouthwash: 3-day old biofilm; for impact on biofilm removal (in words): ingredient effect in mouthrinse formulations, 3-day old in-vitro oral biofilm

Compound	Bacterial optical density, 4 h (A. viscosus)	Bacterial optical density, 22 h (A. viscosus)	Bacterial optical density, 24 h (A. viscosus)	Bacterial optical density, 0 h (A. viscosus)	impact on biofilm removal (in words) [1]	further results
1,2,4-trimethyl-pyrazolium methylsulfate	0.1978	0.8519	1.0042	0.1482		
1-buty1-3-methylimidazolium (BMIM) bromide	0.2373	0.5994	0.8244	0.1482		
1-ethy1-3-methylimidazolium (EMIM) bromide	0.2216	0.7598	0.8533	0.1482		
C=CCn1cc[n+](C)c1.[Cl-] [1-ally1-3-methylimidazolium (AMIM) chloride]	0.2265	0.7091	0.8440	0.1482		
C[N+](C)(C)CCO.[Cl-] [Choline chloride]	0.2445	1.0236	1.0674	0.1482		
C[N+](C)(C)CCO.O=C([O-])c1ccccc1O [Choline salicylate, choline salicylate]	0.1523	0.1542	0.1539	0.1482		growth inhibition of A. viscosus (in words) (A. viscosus; formulated at 10% concentration in a mouth rinse): greater growth inhibition of A. viscosus than does a mouthrinse which contains 0.075% cetyl pyridinium chloride; Percent biofilm removal (3-day biofilm; choline salicylate 10, TRIS 0): 48%; Percent biofilm removal if sorbitol at 20% (3-day biofilm; choline salicylate 10, TRIS 0): 53%; Percent biofilm removal (3-day biofilm; choline salicylate 20, TRIS 0): 61%; Percent biofilm removal if sorbitol at 20% (3-day biofilm; choline salicylate 20, TRIS 0): 66%
CC(=O)[O-].CCn1cc[n+](C)c1 [EMIM acetate]	0.2324	0.7942	0.8223	0.1482		
CCOS(=O)(=O)[O-].CCn1cc[n+](C)c1 [EMIM ethylsulfate]	0.2499	0.7514	0.7965	0.1482		
C[N+](CCO)(CCO)CCO [Tris-HMAM, tris (2-hydroxyethyl) methylammonium methylsulfate]	0.2605	0.8415	0.9087	0.1482	enhances biofilm removal	Percent biofilm removal (3-day biofilm; choline salicylate 0, TRIS 10): 47%; Percent biofilm removal if sorbitol at 20% (3-day biofilm; choline salicylate 0, TRIS 10): 52%; Percent biofilm removal (3-day biofilm; choline salicylate 0, TRIS 20): 60%; Percent biofilm removal if sorbitol at 20% (3-day biofilm; choline salicylate 0, TRIS 20): 65%; % removal in High humectant mouthwash ([1]; 1% Tris-HMAM): 39.0%; % removal in Low humectant mouthwash ([1]; 1% Tris-HMAM): 25.6%; % removal in High humectant mouthwash ([1]; 2.5% Tris-HMAM): 50.5%; % removal in Low humectant mouthwash ([1]; 2.5% Tris-HMAM): 28.2%; % removal in High humectant mouthwash ([1]; 5% Tris-HMAM): 53.9%; % removal in Low humectant mouthwash ([1]; 5% Tris-HMAM): 30.9%; % removal in High humectant mouthwash ([1]; 10% Tris-HMAM): 57.7%; % removal in Low humectant mouthwash ([1]; 10% Tris-HMAM): 46.8%; % removal in High humectant mouthwash ([1]; 20% Tris-HMAM): 71.1%; % removal in Low humectant mouthwash ([1]; 20% Tris-HMAM): 57.3%; % removal in High humectant mouthwash ([1]; 40% Tris-HMAM): 73.2%; % removal in Low humectant mouthwash ([1]; 40% Tris-HMAM): 67.1%
OCC(O)CO [glycerin]					increases the percent of biofilm removal	
CC(O)CO (stereo not drawn) [propylene glycol]					increases the percent of biofilm removal	
OC[C@@H](O)[C@@H](O)[C@H](O)[C@@H](O)CO [sorbitol]					increases the percent of biofilm removal	increase in biofilm removal (3-day biofilm; 20% sorbitol in the formulations): ~5%
Choline acetate	0.2559	0.9480	1.0385	0.1482		
